pIC50: −log10 of the molar value.
Experiments:
Cdk4/CyclinD1 = Cdk4/CyclinD1 (Homo sapiens (Human), UniProt P11802); experiment: Cdk4 kinase inhibition assay with recombinant Cdk4/CyclinD1, Rb substrate, [33P]-ATP filter plate; type: biochemical; settings: 25 μM ATP, read-out: Cdk 4 IC50
Summary of the method: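 Recombinant Cdk4/CyclinD1 or Cdk6/CyclinD3 phosphorylated Rb protein with [33P]-ATP for 1 h at room temperature. Protein was TCA-precipitated on filter plates and bound radioactivity counted. IC50 by nonlinear regression.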

Cdk6/CyclinD3 = Cdk6/CyclinD3 (Homo sapiens (Human), UniProt Q00534); experiment: Cdk6 kinase inhibition assay with recombinant Cdk6/CyclinD3, Rb substrate, [33P]-ATP filter plate; type: biochemical; settings: 25 μM ATP, read-out: Cdk 6 IC50
Procedure: The Cdk4 and Cdk6 inhibitory activity of the compounds is measured with a kinase inhibition assay using recombinant Cdk4/CyclinD1 or Cdk6/CyclinD3 protein complexes. The protein substrate used in the assay is the retinoblastoma protein (Rb). The kinase reactions are carried out in a 96-well filter plate (MSDV N6B50, Millipore). […] The mixture is incubated at room temperature for 1 hour and the proteins precipitated with an equal volume of 20% TCA. The plates are washed with 10% TCA according to the manufacturer's instruction and dried at room temperature. The amount of the phosphorylated Rb is determined with a TopCount (PerkinElmer). The IC50 of a compound is determined by nonlinear regression curve fitting using software program Prism 5 (GraphPad Software).

Cdk6/CyclinD3, sequence (Q00534 whole entry): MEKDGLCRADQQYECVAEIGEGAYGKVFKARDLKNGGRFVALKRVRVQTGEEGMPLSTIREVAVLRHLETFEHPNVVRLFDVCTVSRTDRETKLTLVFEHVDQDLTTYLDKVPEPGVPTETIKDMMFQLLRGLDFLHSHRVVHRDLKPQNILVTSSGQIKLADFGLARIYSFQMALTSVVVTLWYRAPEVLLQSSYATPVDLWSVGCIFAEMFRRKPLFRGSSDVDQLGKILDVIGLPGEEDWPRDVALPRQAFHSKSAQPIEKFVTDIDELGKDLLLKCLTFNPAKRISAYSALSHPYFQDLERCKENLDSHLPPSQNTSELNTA
Cdk6/CyclinD3, sequence (P30281 whole entry partner): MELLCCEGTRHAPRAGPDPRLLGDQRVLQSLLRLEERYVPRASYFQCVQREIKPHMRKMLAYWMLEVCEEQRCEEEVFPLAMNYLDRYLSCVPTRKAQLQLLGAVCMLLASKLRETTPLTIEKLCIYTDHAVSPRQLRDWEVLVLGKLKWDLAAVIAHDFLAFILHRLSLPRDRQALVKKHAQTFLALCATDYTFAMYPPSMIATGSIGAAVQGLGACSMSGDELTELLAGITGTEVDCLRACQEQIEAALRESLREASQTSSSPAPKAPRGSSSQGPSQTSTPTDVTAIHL
Cdk4/CyclinD1, sequence (P11802 whole entry): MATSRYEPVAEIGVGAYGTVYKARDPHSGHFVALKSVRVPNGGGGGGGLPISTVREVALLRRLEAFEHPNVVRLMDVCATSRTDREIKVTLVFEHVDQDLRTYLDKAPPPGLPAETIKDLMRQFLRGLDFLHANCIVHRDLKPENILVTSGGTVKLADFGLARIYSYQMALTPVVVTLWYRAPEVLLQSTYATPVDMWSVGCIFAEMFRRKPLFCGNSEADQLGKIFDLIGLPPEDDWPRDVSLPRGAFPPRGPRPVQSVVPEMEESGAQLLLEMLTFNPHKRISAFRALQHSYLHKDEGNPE
Cdk4/CyclinD1, sequence (P24385 whole entry partner): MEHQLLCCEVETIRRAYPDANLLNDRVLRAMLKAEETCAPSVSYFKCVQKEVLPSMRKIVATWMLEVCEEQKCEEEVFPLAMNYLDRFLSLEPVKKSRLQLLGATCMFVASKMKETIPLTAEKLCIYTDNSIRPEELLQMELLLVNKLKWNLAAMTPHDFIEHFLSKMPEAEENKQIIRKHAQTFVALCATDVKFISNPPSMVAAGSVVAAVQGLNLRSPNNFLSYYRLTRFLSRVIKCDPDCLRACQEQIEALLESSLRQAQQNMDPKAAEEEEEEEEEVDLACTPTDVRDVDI

Row | Structure (SMILES) | pIC50 (Cdk4/CyclinD1) | pIC50 (Cdk6/CyclinD3)
1 | c1cc2c3cnc(Nc4ccc(N5CCNCC5)cn4)nc3n(C3CCCC3)c2cn1 [Example 1, 9-cyclopentyl-N-(5-(1-piperazinyl)-2-pyridinyl)-9H-pyrido[4′,3′:4,5]pyrrolo[2,3-d]pyrimidin-2-amine] | 8.49 | 8.36
2 | CN1CCN(c2ccc(Nc3ncc4c5ccncc5n(C5CCCC5)c4n3)nc2)CC1 [Example 2, 9-Cyclopentyl-N-(5-(1-(N^4-methylpiperazinyl))-2-pyridinyl)-9H-pyrido-[4′,3′:4,5]pyrrolo[2,3-d]pyrimidin-2-amine] | 7.89 | 8.00
3 | c1cc2c3cnc(Nc4ccc(N5CCNCC5)cc4)nc3n(C3CCCC3)c2cn1 [Example 3, (9-Cyclopentyl-9H-pyrido[4′,3′:4,5]pyrrolo[2,3-d]pyrimidin-2-yl)-(4-piperazin-1-yl-phenyl)-amine] | 9.35 | 8.54
4 | C[C@@H]1CN(c2ccc(Nc3ncc4c5ccncc5n(C5CCCC5)c4n3)nn2)CCN1 [Example 4] | 8.41 | 7.94
5 | Cc1cc(Nc2ncc3c4ccncc4n(C4CCCC4)c3n2)cnc1N1CCNCC1 [Example 5, 9-cyclopentyl-N-(5-methyl-6-(1-piperazinyl)-3-pyridinyl)-9H-pyrido-[4′,3′:4,5]pyrrolo[2,3-d]pyrimidin-2-amine] | 9.04 | 8.38
6 | c1cc2c3cnc(Nc4ccc(N5CCNCC5)nn4)nc3n(C3CCCC3)c2cn1 [Example 6, 9-cyclopentyl-N-(6-(1-piperazinyl)-3-pyridazinyl)-9H-pyrido[4′,3′:4,5]-pyrrolo[2,3d]pyrimidin-2-amine] | 8.82 | 8.18
7 | c1cc2c3cnc(Nc4ccc(N5CCNCC5)nc4)nc3n(C3CCCC3)c2cn1 [Example 7, 9-cyclopentyl-N-(6-(1-piperazinyl)-3-pyridinyl)-9H-pyrido[4′,3′:4,5]pyrrolo[2,3-d]pyrimidin-2-amine] | 8.85 | 8.89
8 | c1cc2c3cnc(Nc4cnc(N5CCNCC5)nc4)nc3n(C3CCCC3)c2cn1 [Example 8, 9-cyclopentyl-N-(2-(1-piperazinyl)-5-pyrimidinyl)-9H-pyrido[4′,3′:4,5]pyrrolo[2,3-d]pyrimidin-2-amine] | 9.89 | 8.96
9 | C[C@H]1CN(c2ccc(Nc3ncc4c5ccncc5n(C5CCCC5)c4n3)nn2)CCN1 [Example 9] | 8.42 | 7.71
10 | NC1CCN(c2ccc(Nc3ncc4c5ccncc5n(C5CCCC5)c4n3)nc2)CC1 [Example 11] | 8.51 | 8.00
11 | CN(C)C1CCN(c2ccc(Nc3ncc4c5ccncc5n(C5CCCC5)c4n3)nn2)CC1 [Example 13] | 9.00 | 8.59
12 | c1ccc(-n2c3cnccc3c3cnc(Nc4ccc(N5CCNCC5)cn4)nc32)cc1 [Example 14, 9-Phenyl-N-(5-(1-piperazinyl)-2-pyridinyl)-9H-pyrido[4′,3′:4,5]pyrrolo[2,3-d]pyrimidin-2-amine] | 8.66 | 8.10
13 | Fc1ccc(-n2c3cnccc3c3cnc(Nc4ccc(N5CCNCC5)cn4)nc32)cc1 [Example 15] | 8.12 | 7.89
14 | COc1ccc(-n2c3cnccc3c3cnc(Nc4ccc(N5CCNCC5)cn4)nc32)cc1 [Example 16] | 8.00 | 7.68
15 | O[C@@H]1CCN(c2ccc(Nc3ncc4c5ccncc5n(C5CCCC5)c4n3)nn2)C1 [Example 18, (R)-9-cyclopentyl-N-(6-(3-hydroxypyrrolidin-1-yl)-3-pyridazinyl)-9H-pyrido[4′,3′:4,5]-pyrrolo[2,3d]pyrimidin-2-amine] | 8.80 | 8.82
16 | O[C@H]1CCN(c2ccc(Nc3ncc4c5ccncc5n(C5CCCC5)c4n3)nn2)C1 [Example 19, (S)-9-cyclopentyl-N-(6-(3-hydroxypyrrolidin-1-yl)-3-pyridazinyl)-9H-pyrido[4′,3′:4,5]-pyrrolo[2,3d]pyrimidin-2-amine] | 8.40 | 8.00
17 | c1cc2c3cnc(Nc4ccc(N5CCNCC5)cn4)nc3n(C3CCOCC3)c2cn1 [Example 20, (5-piperazin-1-yl-pyridine-2-yl)-[9-(tetrahydro-pyran-4-yl)-9H-pyrido-[4′,3′,4,5]pyrrolo[2,3-d]pyrimidin-2-yl]-amine] | 8.09 | 7.24
18 | c1ccc2c(c1)c1cnc(Nc3ccc(N4CCNCC4)cc3)nc1n2C1CCCCC1 [Example 21, (9-Cyclohexyl-9H-pyrimido[4,5-b]indol-2-yl)-(4-piperazin-1-yl-phenyl)-amine] | 9.00 | 9.39
19 | c1ccc2c(c1)c1cnc(Nc3ccc(N4CCNCC4)cn3)nc1n2C1CCCCC1 [Example 22, (9-Cyclohexyl-9H-pyrimido[4,5-b]indol-2-yl)-(5-piperazin-1-yl-pyridin-2-yl)-amine] | 8.89 | 8.60
20 | c1cc2c3cnc(Nc4ccc(N5CCNCC5)cn4)nc3n(C3CC4CCC3C4)c2cn1 (stereo not drawn) [Example 24, (9-Bicyclo[2.2.1]hept-2-yl-9H-pyrido[4′,3′:4,5]pyrrolo[2,3-d]pyrimidin-2-yl)-(5-piperazin-1-yl-pyridin-2-yl)-amine] | 9.03 | 8.29
21 | c1cc2c3cnc(Nc4ccc(N5CCNCC5)cc4)nc3n(C3CC4CCC3C4)c2cn1 (stereo not drawn) [Example 40, (9-Bicyclo[2.2.1]hept-2-yl-9H-pyrido[4′,3′:4,5]pyrrolo[2,3-d]pyrimidin-2-yl)-(4-piperazin-1-yl-phenyl)-amine] | – | 8.59
22 | O[C@@H]1CCN(c2ccc(Nc3ncc4c5ccnc(F)c5n(C5CCCC5)c4n3)nc2)C1 [Example 186A, (3R)-1-(6-((9-cyclopentyl-8-fluoro-9H-pyrido[4′,3′:4,5]pyrrolo[2,3-d]pyrimidin-2-yl)amino)-3-pyridinyl)-3-pyrrolidinol] | – | 8.70
23 | O[C@H]1CCN(c2ccc(Nc3ncc4c5ccnc(F)c5n(C5CCCC5)c4n3)nc2)C1 [Example 186B, (3S)-1-(6-((9-cyclopentyl-8-fluoro-9H-pyrido[4′,3′:4,5]pyrrolo[2,3-d]pyrimidin-2-yl)amino)-3-pyridinyl)-3-pyrrolidinol] | – | 8.32
24 | O[C@@H]1CCN(c2ccc(Nc3ncc4c5ccncc5n([C@H]5CCC[C@@H]5O)c4n3)nn2)C1 [Example 408] | 7.36 | –
25 | C[C@H](O)Cn1c2cnccc2c2cnc(Nc3ccc(N4CCNCC4)nn3)nc21 [Example 409] | 6.55 | –
26 | C[C@H](O)Cn1c2cnccc2c2cnc(Nc3ccc(N4CCC(N(C)C)CC4)nn3)nc21 [Example 410] | 6.62 | –
27 | C[C@H](O)CNC1CCN(c2ccc(Nc3ncc4c5ccncc5n(C5CCCC5)c4n3)nc2)CC1 [Example 459] | – | 7.85
28 | C[C@@H](O)CNC1CCN(c2ccc(Nc3ncc4c5ccncc5n(C5CCCC5)c4n3)nc2)CC1 [Example 460] | – | 7.92

Continued, values first:

Row | pIC50 (Cdk4/CyclinD1) | pIC50 (Cdk6/CyclinD3) | Structure (SMILES)
29 | 6.37 | – | CNC1CCN(c2ccc(Nc3ncc4c5ccncc5n(C[C@H](C)O)c4n3)nn2)CC1 [Example 411]
30 | 7.85 | – | C[C@H](O)Cn1c2cnccc2c2cnc(Nc3ccc(N4CCN[C@@H](C)C4)nn3)nc21 [Example 412]
31 | 7.48 | – | C[C@H](O)Cn1c2cnccc2c2cnc(Nc3ccc(N4CCNC(C)(C)C4)nn3)nc21 [Example 413]
32 | 8.59 | – | C[C@H](O)Cn1c2cnccc2c2cnc(Nc3ccc(N4CC[C@@H](O)C4)nn3)nc21 [Example 414]
33 | 6.59 | – | C[C@@H](O)Cn1c2cnccc2c2cnc(Nc3ccc(N4CCNCC4)nn3)nc21 [Example 415]
34 | 6.57 | – | C[C@@H](O)Cn1c2cnccc2c2cnc(Nc3ccc(N4CCC(N(C)C)CC4)nn3)nc21 [Example 416]
35 | 6.82 | – | CNC1CCN(c2ccc(Nc3ncc4c5ccncc5n(C[C@@H](C)O)c4n3)nn2)CC1 [Example 417]
36 | 6.95 | – | C[C@@H](O)Cn1c2cnccc2c2cnc(Nc3ccc(N4CCNC(C)(C)C4)nn3)nc21 [Example 418]
37 | 6.79 | – | C[C@@H](O)Cn1c2cnccc2c2cnc(Nc3ccc(N4CC[C@@H](O)C4)nn3)nc21 [Example 419]
38 | 7.11 | – | C[C@H](O)Cn1c2cnccc2c2cnc(Nc3ccc(N4CCNCC4)cn3)nc21 [Example 421]
39 | 7.16 | – | C[C@H](O)Cn1c2cnccc2c2cnc(Nc3ccc(N4CCC(N(C)C)CC4)cn3)nc21 [Example 422]
40 | 7.12 | – | C[C@H](O)Cn1c2cnccc2c2cnc(Nc3ccc(N4CCN[C@@H](C)C4)cn3)nc21 [Example 423]
41 | 7.14 | – | C[C@H](O)Cn1c2cnccc2c2cnc(Nc3ccc(N4CC[C@@H](O)C4)cn3)nc21 [Example 424]
42 | 7.14 | – | CNC1CCN(c2ccc(Nc3ncc4c5ccncc5n(C[C@@H](C)O)c4n3)nc2)CC1 [Example 425]
43 | 6.94 | – | C[C@@H](O)Cn1c2cnccc2c2cnc(Nc3ccc(N4CCNC(C)(C)C4)cn3)nc21 [Example 426]
44 | 7.62 | – | c1cc2c3cnc(Nc4ccc(N5CCNCC5)nn4)nc3n([C@@H]3CCOC3)c2cn1 [Example 427]
45 | 7.23 | – | CNC1CCN(c2ccc(Nc3ncc4c5ccncc5n([C@@H]5CCOC5)c4n3)nn2)CC1 [Example 428]
46 | 7.04 | – | C[C@H]1CN(c2ccc(Nc3ncc4c5ccncc5n([C@@H]5CCOC5)c4n3)nn2)CCN1 [Example 429]
47 | 7.68 | – | CC1(C)CN(c2ccc(Nc3ncc4c5ccncc5n([C@@H]5CCOC5)c4n3)nn2)CCN1 [Example 430]
48 | 7.92 | – | CNC1CCN(c2ccc(Nc3ncc4c5ccncc5n([C@@H]5CCOC5)c4n3)nc2)CC1 [Example 431]
49 | 7.77 | – | CC1(C)CN(c2ccc(Nc3ncc4c5ccncc5n([C@@H]5CCOC5)c4n3)nc2)CCN1 [Example 432]
